Results reported in article PMC10046037, “GABRG2 Variants Associated with Febrile Seizures” (Biomolecules, 2023).

Molecular target: T1, α1β3γ2 GABAA receptor, γ2S325L variant (Homo sapiens, UniProt P14867+P18507+P28472, S325L)
T1 construct: expressed in transfected cells; host or cells: HEK293T
T1 sequence (P14867 28-456): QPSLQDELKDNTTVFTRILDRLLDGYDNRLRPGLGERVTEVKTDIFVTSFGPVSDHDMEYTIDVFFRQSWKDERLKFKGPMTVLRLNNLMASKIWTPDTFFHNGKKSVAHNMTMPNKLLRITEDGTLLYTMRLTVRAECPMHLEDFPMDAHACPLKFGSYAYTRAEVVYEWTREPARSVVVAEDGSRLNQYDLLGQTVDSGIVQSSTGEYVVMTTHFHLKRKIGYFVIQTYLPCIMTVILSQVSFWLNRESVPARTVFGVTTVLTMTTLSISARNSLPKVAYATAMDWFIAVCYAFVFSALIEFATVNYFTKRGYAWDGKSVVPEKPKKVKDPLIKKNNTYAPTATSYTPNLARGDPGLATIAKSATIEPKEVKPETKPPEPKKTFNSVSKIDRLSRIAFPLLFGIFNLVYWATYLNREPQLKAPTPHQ
T1 sequence (P28472 26-473 isoform P28472-2): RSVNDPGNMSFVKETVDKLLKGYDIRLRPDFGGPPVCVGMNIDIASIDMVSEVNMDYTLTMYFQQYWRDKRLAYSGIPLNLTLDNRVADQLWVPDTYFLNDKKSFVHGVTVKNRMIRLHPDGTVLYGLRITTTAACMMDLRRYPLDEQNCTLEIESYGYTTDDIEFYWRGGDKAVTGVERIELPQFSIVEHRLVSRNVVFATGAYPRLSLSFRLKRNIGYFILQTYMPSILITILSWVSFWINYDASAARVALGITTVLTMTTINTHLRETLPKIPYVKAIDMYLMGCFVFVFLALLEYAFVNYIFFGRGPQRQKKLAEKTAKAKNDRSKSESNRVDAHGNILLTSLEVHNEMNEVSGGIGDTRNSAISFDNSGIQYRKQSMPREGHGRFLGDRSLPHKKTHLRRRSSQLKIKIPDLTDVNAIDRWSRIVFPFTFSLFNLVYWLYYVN
T1 sequence (P18507 40-475 S325L): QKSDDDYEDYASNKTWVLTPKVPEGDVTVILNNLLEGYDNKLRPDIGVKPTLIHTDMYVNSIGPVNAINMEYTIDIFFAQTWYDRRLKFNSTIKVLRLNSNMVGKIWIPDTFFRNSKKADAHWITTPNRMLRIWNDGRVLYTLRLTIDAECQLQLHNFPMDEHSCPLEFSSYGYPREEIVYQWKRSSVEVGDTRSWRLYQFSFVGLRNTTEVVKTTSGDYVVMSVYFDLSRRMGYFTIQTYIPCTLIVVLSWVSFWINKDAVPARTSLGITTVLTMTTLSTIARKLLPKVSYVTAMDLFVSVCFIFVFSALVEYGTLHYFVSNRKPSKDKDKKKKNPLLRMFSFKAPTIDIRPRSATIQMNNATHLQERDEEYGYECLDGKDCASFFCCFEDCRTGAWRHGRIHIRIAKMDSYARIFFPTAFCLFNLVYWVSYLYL
Assay: Automated patch clamp of GABA-elicited currents (SyncroPatch 384PE), γ2S325L
Format: cell-based
Conditions: mean
Method: The coding sequences of human α1 (GABRA1, NM_000806), β3 (GABRB3, NM_021912), and γ2 (GABRG2, NM_198904.2) GABAAR subunits were subcloned into the pcDNA3.1 expression vectors (Invitrogen, Waltham, MA, USA).
HEK293T cells (ATCC, CRL-11268) were cultured at 37 °C in a humidified 5% CO2 incubator and maintained in Dulbecco’s modified Eagle’s medium (Invitrogen) supplemented with 10% fetal bovine serum (Life Technologies, Carlsbad, CA, USA), and 100 IU/mL of penicillin/streptomycin (Life Technologies). For the expression experiments, 4 × 10^5 cells were transfected using polyethylenimine (PEI) reagent (40 kD, Polysciences, Warrington, PA, USA) at a DNA: to transfection reagent ratio of 1:2.5 and harvested 36 h after transfection. To express WT and variant α1β3γ2 receptors, a total of 3 µg of α1, β3, and γ2 (WT or mutant) subunit cDNAs were transfected at a ratio of 1:1:1 into 60 mm culture dishes. For the mock-transfected condition, an empty pcDNA3.1 vector was added for a final cDNA transfection amount of 3 μg. For the electrophysiology experiments, 2.5 × 10^5 cells were plated in 100 mm culture dishes and transfected after 24 h with 3 μg of cDNA of each α1, β3, γ2 (wild-type or mutant) subunit, using X-tremeGENE HP DNA transfection Reagent (Roche Diagnostics, Basel, Switzerland), following the manufacturer’s protocol. Recordings were obtained forty-eight hours after transfection.
Whole-cell patch clamp recordings were conducted according to the manufacturer’s standard procedure for the SyncroPatch 384 [31]. Whole-cell voltage-clamp recordings were performed at room temperature on HEK293T cells 48 h after transfection with GABAAR subunits, using the SyncroPatch 384PE (Nanion Technologies, Munich, Germany). Cells, at a concentration of 400,000 cells/mL, were harvested in suspension in external solution containing 140 mM of NaCl, 2 mM of CaCl2, 4 mM of KCl, 1 mM of MgCl2, 5 mM of glucose, and 10 mM of HEPES (pH 7.4 with NaOH, 298 mOsm). The cells were loaded in a multi-hole (4 holes per well) 384-well Nanion patch clamp (NPC) chip with a thick borosilicate glass bottom and an average resistance pore size of […]. Built-in electrophysiological protocols were used, and the data were digitized using PatchControl 384 (Nanion Technologies) application. Using PatchControl 384, electrophysiological parameters, such as seal resistance, capacitance, and series resistance, were determined for each well after the application of a test pulse, and subsequently monitored over time. […] The currents were normalized to the maximal response of each well, and the concentration–response curves were calculated from single-point additions. The EC50 values for each variant or wild-type receptor were calculated across multiple wells for each experimental condition.

Deactivation (1 mM GABA for 5 ms, HEK293T, -80 mV): 307.7 ms
IMAX (maximal GABA-evoked peak current) (1 mM GABA for 5 ms, HEK293T): 0.78 nA
IMAX variant/IMAX WT (1 mM GABA): 39.07%
Rise Time (10–90% rise time, 1 mM GABA for 5 ms, HEK293T): 68.01 ms
Compound: NCCCC(=O)O [GABA, γ-aminobutyric acid]
